Assay results taken from ChEMBL document CHEMBL3885861, “Open TG-GATES”.

Species on record: Rattus norvegicus
Assay: Open TG-GATES - Regimen: Single
Type: toxicity, organism-based, Sprague-Dawley
Design: regimen Single, gender Male, age 6 weeks
Details: in vivo, po, route gavage; for APTT / Bas / Eos / Fbg / Hb / Ht / Lym / MCH / MCHC / MCV / Mono / Neu / PT / Plat / RBC / Ret / WBC: tissue Blood; for KIDNEY_TOTAL: tissue Kidney; for LIVER: tissue Liver; for A/G / ALP / ALT / AST / BUN / CRE / Ca / Cl / DBIL / GLC / IP / K / LDH / Na / PL / RALB / TBIL / TC / TG / TP / gamma-GTP: tissue Plasma
[1] = 100 mg/kg, 3 h, dose level Middle
[2] = 100 mg/kg, 6 h, dose level Middle
[3] = 100 mg/kg, 9 h, dose level Middle
[4] = 100 mg/kg, 24 h, dose level Middle
[5] = 500 mg/kg, 3 h, dose level High
[6] = 500 mg/kg, 6 h, dose level High
[7] = 500 mg/kg, 9 h, dose level High
[8] = 500 mg/kg, 24 h, dose level High

## CN(CCOc1ccc(CC2SC(=O)NC2=O)cc1)c1ccccn1.O=C(O)/C=C\C(=O)O (stereo not drawn) [ROSIGLITAZONE MALEATE]
[1]
  TERMINAL_BW: 205.4 g
  APTT: 16.2 s
  Bas: 0%
  Eos: 1%
  Fbg: 217.8 mg/dL
  Hb: 13 g/dL
  Ht: 39.5%
  Lym: 77.2%
  MCH: 21.3 pg
  MCHC: 32.8%
  MCV: 65 fL
  Mono: 7.8%
  Neu: 14.4%
  PT: 12.2 s
  Plat: 119.4 x10_4/uL
  RBC: 607.6 x10_4/ul
  Ret: 8.6%
  WBC: 105 x10_2/uL
  KIDNEY_TOTAL: 0.8 g
  LIVER: 9.5 g
  A/G: 2.2
  ALP: 1374 IU/L
  ALT: 36.6 IU/L
  AST: 74.6 IU/L
  BUN: 13.4 mg/dL
  CRE: 0.4 mg/dL
  Ca: 11.6 mg/dL
  Cl: 104 meq/L
  DBIL: 0.014 mg/dL
  GLC: 189.2 mg/dL
  IP: 8.9 mg/dL
  K: 4.4 meq/L
  LDH: 107.8 IU/L
  Na: 139.6 meq/L
  PL: 133.2 mg/dL
  RALB: 3.6 g/dL
  TBIL: 0.046 mg/dL
  TC: 78.8 mg/dL
  TG: 75.6 mg/dL
  TP: 5.3 g/dL
  gamma-GTP: 0.8 IU/L
[2]
  TERMINAL_BW: 206.8 g
  APTT: 16.7 s
  Bas: 0%
  Eos: 1%
  Fbg: 221.8 mg/dL
  Hb: 12.4 g/dL
  Ht: 37.5%
  Lym: 67.4%
  MCH: 20.7 pg
  MCHC: 33.1%
  MCV: 62.5 fL
  Mono: 9.8%
  Neu: 22%
  PT: 12.4 s
  Plat: 124.2 x10_4/uL
  RBC: 600 x10_4/ul
  Ret: 8.9%
  WBC: 105.2 x10_2/uL
  KIDNEY_TOTAL: 0.8 g
  LIVER: 9 g
  A/G: 2.3
  ALP: 1392.2 IU/L
  ALT: 33.6 IU/L
  AST: 64 IU/L
  BUN: 10.2 mg/dL
  CRE: 0.4 mg/dL
  Ca: 11.1 mg/dL
  Cl: 104.2 meq/L
  DBIL: 0.016 mg/dL
  GLC: 179.2 mg/dL
  IP: 10 mg/dL
  K: 4.5 meq/L
  LDH: 82.2 IU/L
  Na: 138.4 meq/L
  PL: 127.8 mg/dL
  RALB: 3.6 g/dL
  TBIL: 0.042 mg/dL
  TC: 73 mg/dL
  TG: 64.2 mg/dL
  TP: 5.2 g/dL
  gamma-GTP: 1 IU/L
[3]
  TERMINAL_BW: 198.2 g
  APTT: 16.2 s
  Bas: 0%
  Eos: 1%
  Fbg: 217 mg/dL
  Hb: 12.7 g/dL
  Ht: 38.5%
  Lym: 75.6%
  MCH: 22.1 pg
  MCHC: 32.9%
  MCV: 67.1 fL
  Mono: 4.8%
  Neu: 19%
  PT: 12.3 s
  Plat: 118.4 x10_4/uL
  RBC: 574.2 x10_4/ul
  Ret: 8.9%
  WBC: 85 x10_2/uL
  KIDNEY_TOTAL: 0.8 g
  LIVER: 8.3 g
  A/G: 2.5
  ALP: 1125.2 IU/L
  ALT: 28 IU/L
  AST: 62 IU/L
  BUN: 11.2 mg/dL
  CRE: 0.4 mg/dL
  Ca: 11.7 mg/dL
  Cl: 103.8 meq/L
  DBIL: 0.014 mg/dL
  GLC: 190.6 mg/dL
  IP: 11.3 mg/dL
  K: 4.3 meq/L
  LDH: 120.2 IU/L
  Na: 140.4 meq/L
  PL: 122.2 mg/dL
  RALB: 3.9 g/dL
  TBIL: 0.046 mg/dL
  TC: 70.2 mg/dL
  TG: 49.6 mg/dL
  TP: 5.5 g/dL
  gamma-GTP: 0.6 IU/L
[4]
  TERMINAL_BW: 224.2 g
  APTT: 16.3 s
  Bas: 0%
  Eos: 0.8%
  Fbg: 213.2 mg/dL
  Hb: 12.4 g/dL
  Ht: 38%
  Lym: 68.8%
  MCH: 20.9 pg
  MCHC: 32.7%
  MCV: 63.8 fL
  Mono: 9.4%
  Neu: 21.2%
  PT: 11.5 s
  Plat: 120.6 x10_4/uL
  RBC: 596.2 x10_4/ul
  Ret: 7.7%
  WBC: 74.8 x10_2/uL
  KIDNEY_TOTAL: 0.6 g
  LIVER: 11.2 g
  A/G: 2.7
  ALP: 1341.6 IU/L
  ALT: 40.2 IU/L
  AST: 71.2 IU/L
  BUN: 16.6 mg/dL
  CRE: 0.4 mg/dL
  Ca: 11.3 mg/dL
  Cl: 104.4 meq/L
  DBIL: 0.016 mg/dL
  GLC: 187.6 mg/dL
  IP: 7.8 mg/dL
  K: 4.5 meq/L
  LDH: 123.8 IU/L
  Na: 140 meq/L
  PL: 161.6 mg/dL
  RALB: 3.8 g/dL
  TBIL: 0.032 mg/dL
  TC: 90.6 mg/dL
  TG: 127.2 mg/dL
  TP: 5.3 g/dL
  gamma-GTP: 1 IU/L
[5]
  TERMINAL_BW: 202.9 g
  APTT: 16.4 s
  Bas: 0%
  Eos: 0.6%
  Fbg: 224.2 mg/dL
  Hb: 13 g/dL
  Ht: 39.4%
  Lym: 77.6%
  MCH: 21.2 pg
  MCHC: 33.1%
  MCV: 64.1 fL
  Mono: 7.8%
  Neu: 14.2%
  PT: 12.3 s
  Plat: 129.2 x10_4/uL
  RBC: 613.8 x10_4/ul
  Ret: 9.1%
  WBC: 85.4 x10_2/uL
  KIDNEY_TOTAL: 0.6 g
  LIVER: 8.9 g
  A/G: 2.3
  ALP: 1535.8 IU/L
  ALT: 35.8 IU/L
  AST: 69.6 IU/L
  BUN: 15 mg/dL
  CRE: 0.5 mg/dL
  Ca: 11.6 mg/dL
  Cl: 102.2 meq/L
  DBIL: 0.01 mg/dL
  GLC: 185.2 mg/dL
  IP: 10.5 mg/dL
  K: 4.2 meq/L
  LDH: 76.8 IU/L
  Na: 140.4 meq/L
  PL: 137 mg/dL
  RALB: 3.9 g/dL
  TBIL: 0.036 mg/dL
  TC: 84.2 mg/dL
  TG: 78 mg/dL
  TP: 5.6 g/dL
  gamma-GTP: 1 IU/L
[6]
  TERMINAL_BW: 206.5 g
  APTT: 16.5 s
  Bas: 0%
  Eos: 1%
  Fbg: 217 mg/dL
  Hb: 13.2 g/dL
  Ht: 40%
  Lym: 62.6%
  MCH: 21 pg
  MCHC: 32.9%
  MCV: 63.8 fL
  Mono: 11.6%
  Neu: 24.8%
  PT: 11.8 s
  Plat: 118.4 x10_4/uL
  RBC: 626.8 x10_4/ul
  Ret: 9.7%
  WBC: 75.4 x10_2/uL
  KIDNEY_TOTAL: 0.7 g
  LIVER: 8.6 g
  A/G: 2.4
  ALP: 1138.8 IU/L
  ALT: 30.8 IU/L
  AST: 69 IU/L
  BUN: 10 mg/dL
  CRE: 0.5 mg/dL
  Ca: 11 mg/dL
  Cl: 104 meq/L
  DBIL: 0.014 mg/dL
  GLC: 176.4 mg/dL
  IP: 10.6 mg/dL
  K: 4 meq/L
  LDH: 70.4 IU/L
  Na: 139.6 meq/L
  PL: 140.4 mg/dL
  RALB: 3.9 g/dL
  TBIL: 0.042 mg/dL
  TC: 89.2 mg/dL
  TG: 69.2 mg/dL
  TP: 5.5 g/dL
  gamma-GTP: 1 IU/L
[7]
  TERMINAL_BW: 203.4 g
  APTT: 17 s
  Bas: 0%
  Eos: 0.8%
  Fbg: 211.4 mg/dL
  Hb: 12.4 g/dL
  Ht: 37.6%
  Lym: 77.4%
  MCH: 21.5 pg
  MCHC: 33%
  MCV: 65.2 fL
  Mono: 5.2%
  Neu: 16.6%
  PT: 12.4 s
  Plat: 128.2 x10_4/uL
  RBC: 577 x10_4/ul
  Ret: 9.1%
  WBC: 77.4 x10_2/uL
  KIDNEY_TOTAL: 0.6 g
  LIVER: 7.9 g
  A/G: 2.6
  ALP: 1267.6 IU/L
  ALT: 28.2 IU/L
  AST: 65.4 IU/L
  BUN: 12 mg/dL
  CRE: 0.4 mg/dL
  Ca: 11.8 mg/dL
  Cl: 104.2 meq/L
  DBIL: 0.016 mg/dL
  GLC: 180.8 mg/dL
  IP: 10.9 mg/dL
  K: 4.6 meq/L
  LDH: 94.6 IU/L
  Na: 139.8 meq/L
  PL: 114.8 mg/dL
  RALB: 3.9 g/dL
  TBIL: 0.048 mg/dL
  TC: 63.6 mg/dL
  TG: 68.6 mg/dL
  TP: 5.4 g/dL
  gamma-GTP: 0.4 IU/L
[8]
  TERMINAL_BW: 222.1 g
  APTT: 16.4 s
  Bas: 0%
  Eos: 1.2%
  Fbg: 212.6 mg/dL
  Hb: 12.3 g/dL
  Ht: 37.6%
  Lym: 65.6%
  MCH: 21.3 pg
  MCHC: 32.7%
  MCV: 65.1 fL
  Mono: 8.4%
  Neu: 24.8%
  PT: 12.1 s
  Plat: 128.4 x10_4/uL
  RBC: 578.4 x10_4/ul
  Ret: 8.4%
  WBC: 96 x10_2/uL
  KIDNEY_TOTAL: 0.7 g
  LIVER: 10.3 g
  A/G: 2.7
  ALP: 1526.8 IU/L
  ALT: 34.6 IU/L
  AST: 65.2 IU/L
  BUN: 18 mg/dL
  CRE: 0.4 mg/dL
  Ca: 11.1 mg/dL
  Cl: 104.2 meq/L
  DBIL: 0.02 mg/dL
  GLC: 183.8 mg/dL
  IP: 7.9 mg/dL
  K: 4.6 meq/L
  LDH: 87.6 IU/L
  Na: 140.4 meq/L
  PL: 127 mg/dL
  RALB: 3.9 g/dL
  TBIL: 0.03 mg/dL
  TC: 70.2 mg/dL
  TG: 113.6 mg/dL
  TP: 5.3 g/dL
  gamma-GTP: 1 IU/L
